In patent US20070032418A1, “Small-molecule inhibitors of angiogenin and rnases and in vivo and in vitro methods of using same” (Ambion, Inc, priority 2003, published 2007):

target: angiogenin (ANG) (Homo sapiens, UniProt P03950); assay: Inhibition of ANG ribonucleolytic activity, HPLC assay of oligonucleotide cleavage; format: biochemical; conditions: not given
Experimental: Reaction mixtures with and without test compounds were chromatographed on a Mono Q anion-exchange column with an NaCl gradient in 10 mM Tris, pH 8. […] This information was used to calculate kcat/Km values, which were then fitted to the equation (kcat/Km)i=(kcat/Km)0/[…], where (kcat/Km)i and (kcat/Km)0 are defined as the values in the presence and absence of inhibitor, respectively, and [I] is defined as the inhibitor concentration. At least four concentrations (in a range of about 10 μM-above 100 μM) were used in the final hit confirmation in order to distinguish all true hits.
Chemical structures of selected compounds are shown in these Tables and in FIGS. 4 and 5.

angiogenin (ANG), sequence (P03950 25-147): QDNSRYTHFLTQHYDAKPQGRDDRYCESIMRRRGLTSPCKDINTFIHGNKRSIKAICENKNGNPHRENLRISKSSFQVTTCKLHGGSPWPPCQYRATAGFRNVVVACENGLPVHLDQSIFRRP

| SMILES | Ki [µM] |
| --- | --- |
| O=C(O)CC(NC(=O)CP(=O)(O)O)C(=O)O (centres unmarked) [NCI-224131] | > 500 |

same assay, conditions: 20 mM Hepes, 100 mM NaCl, pH 7.0, 37° C.; read-out: Ki for inhibition of the ribonucleolytic activity of angiogenin

| SMILES | Ki [µM] |
| --- | --- |
| O=C(c1ccc(C(=O)O)c(NC(=O)c2cccc3ccccc23)c1)c1ccc(C(=O)O)c(NC(=O)c2cccc3ccccc23)c1 [CB-181431, 4,4′-dicarboxy-3,3′-bis(naphthylamido)-diphenylmethanone] | 41 |

same assay, conditions: inhibition of ANG-catalyzed cleavage of an RNA oligonucleotide; 20 mM Hepes, 100 mM NaCl, 37° C.

| SMILES | KI |
| --- | --- |
| Nc1cccc(C(=O)Nc2ccc3c(O)cc(S(=O)(=O)O)cc3c2)c1 [NCI-1743] | in- active at 75 uM |
| Nc1c(OCC(=O)O)ccc2cc(S(=O)(=O)O)ccc12 [NCI-16163] | in- active at 75 uM |
| O=C(Nc1cc(S(=O)(=O)O)cc2cc(S(=O)(=O)O)cc(O)c12)c1ccccc1 [NCI-16169] | in- active at 75 uM |
| O=S(=O)(O)c1cc(O)c2c(/N=C/c3ccccc3O)cc(S(=O)(=O)O)cc2c1 [NCI-88947] | in- active at 75 uM |

same assay, conditions: inhibition of ANG-catalyzed cleavage of an RNA oligonucleotide; 20 mM Hepes, 100 mM NaCl, 37° C.; read-out: KI

| SMILES | Ki [µM] |
| --- | --- |
| O=S(=O)(O)c1cc(O)c2c(O)c(N=Nc3c(O)c(S(=O)(=O)O)cc4cc(S(=O)(=O)O)cc(O)c34)c(S(=O)(=O)O)cc2c1 | > 1000 |

same assay, conditions: read-out: KI

| SMILES | Ki [µM] |
| --- | --- |
| O=S(=O)(O)c1ccc2c(/N=N/c3ccc(S(=O)(=O)O)c4ccccc34)c(O)c(S(=O)(=O)O)cc2c1 [Amaranth] | 60 |
| O=S(=O)(O)c1cc(O)c2ccc(Nc3ccc4c(O)cc(S(=O)(=O)O)cc4c3)cc2c1 [NCI-1698] | 172 |
| Nc1ccc(C(=O)Nc2ccc(C(=O)Nc3ccc4c(O)cc(S(=O)(=O)O)cc4c3)cc2)cc1 [NCI-1741] | ~600 |
| Cc1ccc(/N=N/c2c(O)ccc3cc(S(=O)(=O)O)ccc23)cc1 [NCI-7814] | 175 |
| Cc1cc(-c2ccc(/N=N/c3c(N)c(S(=O)(=O)O)cc4cc(S(=O)(=O)O)ccc34)c(C)c2)ccc1/N=N/c1cc(S(=O)(=O)O)c2ccccc2c1N [NCI-7815] | 14 |
| O=S(=O)(O)c1cc(/N=N/c2c(O)ccc3ccccc23)c2c(O)c(/N=N/c3ccc(S(=O)(=O)O)c4ccccc34)c(S(=O)(=O)O)cc2c1 [NCI-8674] | 158 |
| O=[N+]([O-])c1ccc(/N=N/c2c(S(=O)(=O)O)cc3cc(S(=O)(=O)O)ccc3c2O)c([N+](=O)[O-])c1 [NCI-9360] | 307 |
| COc1cc(-c2ccc(/N=N/c3ccc4c(S(=O)(=O)O)cc(S(=O)(=O)O)c(N)c4c3O)c(OC)c2)ccc1/N=N/c1ccc2c(S(=O)(=O)O)cc(S(=O)(=O)O)c(N)c2c1O [NCI-9617, Chicago Sky Blue 6B] | 5 |
| O=C(O)c1ccccc1/N=N/c1c(O)c(S(=O)(=O)O)cc2cc(S(=O)(=O)O)ccc12 [NCI-12455] | 239 |
| O=C(Nc1ccc2cc(S(=O)(=O)O)cc(S(=O)(=O)O)c2c1)Nc1ccc2cc(S(=O)(=O)O)cc(S(=O)(=O)O)c2c1 [NCI-12857] | 336 |
| Cc1cc(-c2ccc(/N=N/c3c(N)c(S(=O)(=O)O)cc4cc(S(=O)(=O)O)ccc34)c(C)c2)ccc1/N=N/c1c(N)ccc2cc(S(=O)(=O)O)ccc12 [NCI-16224, direct red 34] | 5.5 |
| COc1ccc(/C=N/c2c(O)ccc3ccccc23)cc1OC [NCI-17061] | 900 |
| Nc1ccc(/N=N/c2ccc(/C=C/c3ccc(/N=N/c4ccc(N)c5ccc(S(=O)(=O)O)cc45)cc3S(=O)(=O)O)c(S(=O)(=O)O)c2)c2cc(S(=O)(=O)O)ccc12 [NCI-34933] | 172 |
| O=C(Nc1ccc2cc(S(=O)(=O)O)ccc2c1)c1ccc([N+](=O)[O-])cc1 [NCI-37169] | 950 |
| Nc1ccc(C(=O)Nc2cc(S(=O)(=O)O)cc3cccc(O)c23)cc1 [NCI-37176] | 104 |
| O=C(O)c1cc(O)c(O)c(OC(=O)c2cc(O)c(O)c(O)c2CNc2ccc3cc(S(=O)(=O)O)cc(S(=O)(=O)O)c3c2)c1 [NCI-42067] | 245 |
| O=[N+]([O-])c1ccc(/N=N/c2c(O)ccc3cc(S(=O)(=O)O)ccc23)cc1 [NCI-45538] | 305 |
| O=[N+]([O-])c1ccc(/N=N/c2c(O)c(S(=O)(=O)O)cc3cc(S(=O)(=O)O)ccc23)cc1 [NCI-45540] | 307 |
| O=[N+]([O-])c1cccc(/N=N/c2c(O)c(S(=O)(=O)O)cc3cc(S(=O)(=O)O)ccc23)c1 [NCI-45541] | 244 |
| O=[N+]([O-])c1ccc(/N=N/c2c(S(=O)(=O)O)cc3cc(S(=O)(=O)O)cc(O)c3c2O)cc1 [NCI-45542] | 426 |
| Nc1cc(S(=O)(=O)O)cc2cc(S(=O)(=O)O)c(/N=N/c3ccc([N+](=O)[O-])cc3)c(O)c12 [NCI-45550] | 183 |
| Cc1ccc(/N=N/c2c(N)ccc3cc(S(=O)(=O)O)ccc23)c(C)c1 [NCI-45569] | 194 |
| CC(=O)Nc1ccc(/N=N/c2ccc(N)c3cc(S(=O)(=O)O)ccc23)cc1 [NCI-45571] | 300 |
| O=C(Nc1ccc2cc(S(=O)(=O)O)ccc2c1)c1ccc(/N=N/c2cc(S(=O)(=O)O)c3ccccc3c2O)cc1 [NCI-45608] | 75 |
| O=C(O)c1cc(/N=N/c2ccc(/N=N/c3c(Nc4ccccc4)ccc4cc(S(=O)(=O)O)cc(O)c34)cc2)ccc1O [NCI-45612] | 158 |

| SMILES | Ki [µM] |
| --- | --- |
| Nc1ccc(/N=N/c2ccc(-c3ccc(/N=N/c4ccc(N)c5cc(S(=O)(=O)O)ccc45)cc3)cc2)c2ccc(S(=O)(=O)O)cc12 [NCI-45618] | 15 |
| O=C(O)c1c(O)ccc(/N=N/c2ccc(/N=N/c3ccc4c(S(=O)(=O)O)cccc4c3O)c3ccccc23)c1O [NCI-47735] | 85 |
| O=[N+]([O-])c1ccc(/N=N/c2c(O)c(/N=N/c3cc([N+](=O)[O-])cc([N+](=O)[O-])c3O)cc(/N=N/c3cc(S(=O)(=O)O)cc4cc(S(=O)(=O)O)cc(O)c34)c2O)cc1 [NCI-47740] | 15 |
| COc1cc(/N=N/c2cc(S(=O)(=O)O)cc3cc(S(=O)(=O)O)cc(O)c23)c(C)cc1/N=N/c1c(S(=O)(=O)O)cc2cc(Nc3ccccc3)ccc2c1O [NCI-47755] | 84 |
| O=S(=O)(O)c1ccc(/N=N/c2ccc(/N=N/c3c(O)ccc4cc(S(=O)(=O)O)ccc34)cc2)cc1 [NCI-58047] | 36 |
| O=S(=O)(O)c1ccc(/N=N/c2ccc(/N=N/c3c(O)ccc4cc(S(=O)(=O)O)cc(S(=O)(=O)O)c34)cc2)cc1 [NCI-65546] | 129 |
| COc1cc(/N=N/c2ccc(S(=O)(=O)O)cc2)ccc1/N=N/c1c(O)ccc2cc(S(=O)(=O)O)ccc12 [NCI-65553] | 29 |
| Cc1cc(-c2ccc(/N=N/c3c(O)ccc4cc(S(=O)(=O)O)cc(S(=O)(=O)O)c34)c(C)c2)ccc1/N=N/c1c(O)c(S(=O)(=O)O)cc2cc(S(=O)(=O)O)ccc12 [NCI-65568] | 23 |
| Cc1cc(/N=N/c2ccc(NC(=O)c3ccccc3)c3ccc(S(=O)(=O)O)cc23)ccc1/N=N/c1ccc2c(O)cc(S(=O)(=O)O)cc2c1 [NCI-65844] | 108 |
| Cc1cc(NC(=O)c2ccc(/N=N/c3c(O)c(S(=O)(=O)O)cc4cc(S(=O)(=O)O)ccc34)cc2)ccc1/N=N/c1ccc2cc(S(=O)(=O)O)cc(S(=O)(=O)O)c2c1 [NCI-65845] | 3 |
| Cc1cc(/N=N/c2ccc(/N=N/c3c(O)c(S(=O)(=O)O)cc4cc(S(=O)(=O)O)ccc34)cc2C)ccc1/N=N/c1ccc2cc(S(=O)(=O)O)cc(S(=O)(=O)O)c2c1 [NCI-65847] | 38 |
| Nc1ccc2cc(S(=O)(=O)O)cc(O)c2c1/N=N/c1ccc(-c2ccc(/N=N/c3c(S(=O)(=O)O)cc4cc(S(=O)(=O)O)c(/N=N/c5ccc([N+](=O)[O-])cc5)c(N)c4c3O)cc2)cc1 [NCI-65855] | 129 |
| CC(=O)Nc1ccc(/N=N/c2ccc3cc(S(=O)(=O)O)cc(NC(C)=O)c3c2O)cc1 [NCI-73416] | 77 |
| Nc1c(/N=N/c2cc(Cl)ccc2Cl)c(S(=O)(=O)O)cc2cc(S(=O)(=O)O)c(/N=N/c3ccc(Sc4ccc(/N=N/c5ccc(O)cc5)cc4)cc3)c(O)c12 [NCI-75661] | 76 |
| Nc1ccc2cc(S(=O)(=O)O)cc(O)c2c1/N=N/c1ccc(-c2ccc(/N=N/c3c(N)ccc4cc(S(=O)(=O)O)cc(O)c34)cc2)cc1 [NCI-75778] | 171 |
| O=S(=O)(O)c1cc(O)c2c(/N=N/c3ccc(/N=N/c4c(S(=O)(=O)O)cc5cc(Nc6ccccc6)ccc5c4O)c4ccccc34)cc(S(=O)(=O)O)cc2c1 [NCI-75916] | 125 |
| Cc1nn(-c2cc(S(=O)(=O)O)ccc2Cl)c(O)c1/N=N/c1c(NC(=O)c2ccc(N)cc2)ccc2cc(S(=O)(=O)O)ccc12 [NCI-75963] | 129 |
| Nc1ccc2c(O)c(/N=N/c3ccc(-c4ccc(/N=N/c5c(S(=O)(=O)O)cc6cc(S(=O)(=O)O)c(/N=N/c7cc(Cl)ccc7Cl)c(N)c6c5O)cc4)cc3)c(S(=O)(=O)O)cc2c1 [NCI-77521] | 195 |
| Nc1ccc(/N=N/c2ccc(-c3ccc(/N=N/c4c(S(=O)(=O)O)cc5cc(S(=O)(=O)O)c(/N=N/c6ccccc6)c(O)c5c4N)cc3)cc2)c2ccc(S(=O)(=O)O)cc12 [NCI-79596] | 5 |
| Nc1c(/N=N/c2ccc(-c3ccc(/N=N/c4c(O)ccc5cc(S(=O)(=O)O)cc(S(=O)(=O)O)c45)cc3)cc2)c(S(=O)(=O)O)cc2cc(S(=O)(=O)O)c(/N=N/c3ccccc3)c(O)c12 [NCI-79741] | 23 |
| Nc1ccc2cc(S(=O)(=O)O)c(/N=N/c3ccc(-c4ccc(/N=N/c5c(S(=O)(=O)O)cc6cc(S(=O)(=O)O)c(/N=N/c7cccc([N+](=O)[O-])c7)c(N)c6c5O)cc4)cc3)c(O)c2c1 [NCI-79744] | 244 |
| O=S(=O)(O)c1ccccc1/N=N/c1c(S(=O)(=O)O)cc2cc(S(=O)(=O)O)c(/N=N/c3ccccc3S(=O)(=O)O)c(O)c2c1O [NCI-174066] | 234 |
| O=C(Nc1ccc(/C=C/c2ccc(NC(=O)c3cc(S(=O)(=O)O)c4ccncc4c3O)cc2S(=O)(=O)O)c(S(=O)(=O)O)c1)c1cc(S(=O)(=O)O)c2ccncc2c1O [NCI-665534-P] | 5 |
| Nc1ccc(/N=N/c2ccc(-c3ccc(S(=O)(=O)O)cc3)cc2)c2ccc(S(=O)(=O)O)cc12 [NCI-724225] | 81 |
